Data: ChEMBL document CHEMBL3792365, “Dioxol and dihydrodioxin analogs of 2- and 3-phenylacetonitriles as potent anti-cancer agents with nanomolar activity against a variety of human cancer cells” (2016)

Tests used:
Format in all cases: functional
[1] = Growth inhibition of human SNB75 cells at 10 uM after 48 hrs by sulforhodamine B assay; settings: SNB-75, 48 h, values are per cent of control
[2] = Growth inhibition of human LOXIMVI cells at 10 uM after 48 hrs by sulforhodamine B assay; settings: LOX IMVI, values are per cent of control
M14 = experiment: Growth inhibition of human M14 cells at 10 uM after 48 hrs by sulforhodamine B assay; settings: M14, 48 h, values are per cent of control
SK-MEL-2 = experiment: Growth inhibition of human SK-MEL-2 cells at 10 uM after 48 hrs by sulforhodamine B assay; settings: SK-MEL-2, 48 h, values are per cent of control
SK-MEL-28 = experiment: Growth inhibition of human SK-MEL-28 cells at 10 uM after 48 hrs by sulforhodamine B assay; settings: SK-MEL-28, 48 h, values are per cent of control
SK-MEL-5 = experiment: Growth inhibition of human SK-MEL-5 cells at 10 uM after 48 hrs by sulforhodamine B assay; settings: SK-MEL-5, 48 h, values are per cent of control
[3] = Growth inhibition of human UACC62 cells at 10 uM after 48 hrs by sulforhodamine B assay; settings: UACC-62, 48 h, values are per cent of control
[4] = Growth inhibition of human IGROV1 cells at 10 uM after 48 hrs by sulforhodamine B assay; settings: IGROV-1, 48 h, values are per cent of control
[5] = Growth inhibition of human OVCAR4 cells at 10 uM after 48 hrs by sulforhodamine B assay; settings: OVCAR-4, 48 h, values are per cent of control
[6] = Growth inhibition of human OVCAR5 cells at 10 uM after 48 hrs by sulforhodamine B assay; settings: OVCAR-5, 48 h, values are per cent of control
[7] = Growth inhibition of human OVCAR8 cells at 10 uM after 48 hrs by sulforhodamine B assay; settings: OVCAR-8, 48 h, values are per cent of control
[8] = Growth inhibition of human NCI-ADR-RES cells at 10 uM after 48 hrs by sulforhodamine B assay; settings: values are per cent of control
[9] = Growth inhibition of human SKOV3 cells at 10 uM after 48 hrs by sulforhodamine B assay; settings: SK-OV-3, 48 h, values are per cent of control
786-0 = experiment: Growth inhibition of human 786-0 cells at 10 uM after 48 hrs by sulforhodamine B assay; settings: 786-0, 48 h, values are per cent of control
A498 = experiment: Growth inhibition of human A498 cells at 10 uM after 48 hrs by sulforhodamine B assay; settings: A498, 48 h, values are per cent of control
ACHN = experiment: Growth inhibition of human ACHN cells at 10 uM after 48 hrs by sulforhodamine B assay; settings: values are per cent of control
[10] = Growth inhibition of human Caki1 cells at 10 uM after 48 hrs by sulforhodamine B assay; settings: CAKI-1, 48 h, values are per cent of control
[11] = Growth inhibition of human RXF393 cells at 10 uM after 48 hrs by sulforhodamine B assay; settings: RXF 393, 48 h, values are per cent of control
SN12C = experiment: Growth inhibition of human SN12C cells at 10 uM after 48 hrs by sulforhodamine B assay; settings: values are per cent of control
[12] = Growth inhibition of human TK10 cells at 10 uM after 48 hrs by sulforhodamine B assay; settings: TK-10, 48 h, values are per cent of control
[13] = Growth inhibition of human UO31 cells at 10 uM after 48 hrs by sulforhodamine B assay; settings: UO-31, 48 h, values are per cent of control
[14] = Growth inhibition of human DU145 cells at 10 uM after 48 hrs by sulforhodamine B assay; settings: DU-145, 48 h, values are per cent of control
MDA-MB-231 = experiment: Growth inhibition of human MDA-MB-231 cells at 10 uM after 48 hrs by sulforhodamine B assay; settings: MDA-MB-231, 48 h, values are per cent of control
[15] = Growth inhibition of human Hs 578T cells at 10 uM after 48 hrs by sulforhodamine B assay; settings: values are per cent of control
T47D = experiment: Growth inhibition of human T47D cells at 10 uM after 48 hrs by sulforhodamine B assay; settings: values are per cent of control
K562 = experiment: Growth inhibition of human K562 cells at 10 uM after 48 hrs by sulforhodamine B assay; settings: K562, 48 h, values are per cent of control
A549 = experiment: Growth inhibition of human A549/ATCC cells at 10 uM after 48 hrs by sulforhodamine B assay; settings: A549, 48 h, values are per cent of control
NCI-H23 = experiment: Growth inhibition of human NCI-H23 cells at 10 uM after 48 hrs by sulforhodamine B assay; settings: NCI-H23, 48 h, values are per cent of control
NCI-H322M = experiment: Growth inhibition of human NCI-H322M cells at 10 uM after 48 hrs by sulforhodamine B assay; settings: values are per cent of control
NCI-H460 = experiment: Growth inhibition of human NCI-H460 cells at 10 uM after 48 hrs by sulforhodamine B assay; settings: NCI-H460, 48 h, values are per cent of control
NCI-H522 = experiment: Growth inhibition of human NCI-H522 cells at 10 uM after 48 hrs by sulforhodamine B assay; settings: NCI-H522, 48 h, values are per cent of control
[16] = Growth inhibition of human COLO205 cells at 10 uM after 48 hrs by sulforhodamine B assay; settings: COLO 205, 48 h, values are per cent of control
[17] = Growth inhibition of human HCC2998 cells at 10 uM after 48 hrs by sulforhodamine B assay; settings: HCC 2998, 48 h, values are per cent of control
[18] = Growth inhibition of human HCT116 cells at 10 uM after 48 hrs by sulforhodamine B assay; settings: HCT-116, 48 h, values are per cent of control
[19] = Growth inhibition of human HCT15 cells at 10 uM after 48 hrs by sulforhodamine B assay; settings: HCT-15, 48 h, values are per cent of control
HT-29 = experiment: Growth inhibition of human HT-29 cells at 10 uM after 48 hrs by sulforhodamine B assay; settings: HT-29, 48 h, values are per cent of control
[20] = Growth inhibition of human SW620 cells at 10 uM after 48 hrs by sulforhodamine B assay; settings: SW-620, 48 h, values are per cent of control
[21] = Growth inhibition of human SF268 cells at 10 uM after 48 hrs by sulforhodamine B assay; settings: SF-268, 48 h, values are per cent of control
[22] = Growth inhibition of human SF295 cells at 10 uM after 48 hrs by sulforhodamine B assay; settings: SF-295, 48 h, values are per cent of control
[23] = Growth inhibition of human SF539 cells at 10 uM after 48 hrs by sulforhodamine B assay; settings: SF-539, 48 h, values are per cent of control

## COc1ccc(/C=C(\C#N)c2ccc3c(c2)OCO3)c(OC)c1
[1]
  growth, % of control at 10 µM: 12.8%
[2]
  growth, % of control at 10 µM: 41%
M14
  growth, % of control at 10 µM: 16.4%
SK-MEL-2
  growth, % of control at 10 µM: 2.7%
SK-MEL-28
  growth, % of control at 10 µM: 50.2%
SK-MEL-5
  growth, % of control at 10 µM: 31.7%
[3]
  growth, % of control at 10 µM: 39.7%
[4]
  growth, % of control at 10 µM: 45.1%
[5]
  growth, % of control at 10 µM: 73.7%
[6]
  growth, % of control at 10 µM: 81.6%
[7]
  growth, % of control at 10 µM: 63.1%
[8]
  growth, % of control at 10 µM: 20.3%
[9]
  growth, % of control at 10 µM: 33.2%
786-0
  growth, % of control at 10 µM: 52.1%
A498
  growth, % of control at 10 µM: 26.5%
ACHN
  growth, % of control at 10 µM: 59.1%
[10]
  growth, % of control at 10 µM: 40%
[11]
  growth, % of control at 10 µM: 40.3%
SN12C
  growth, % of control at 10 µM: 53.3%
[12]
  growth, % of control at 10 µM: 49.7%
[13]
  growth, % of control at 10 µM: 46.7%
[14]
  growth, % of control at 10 µM: 63.9%
MDA-MB-231
  growth, % of control at 10 µM: 48.9%
[15]
  growth, % of control at 10 µM: 43.8%
T47D
  growth, % of control at 10 µM: 43.5%
K562
  growth, % of control at 10 µM: 15.9%
A549
  growth, % of control at 10 µM: 36.4%
NCI-H23
  growth, % of control at 10 µM: 59.1%
NCI-H322M
  growth, % of control at 10 µM: 67.6%
NCI-H460
  growth, % of control at 10 µM: 36%
NCI-H522
  growth, % of control at 10 µM: 43.3%
[16]
  growth, % of control at 10 µM: 25.4%
[17]
  growth, % of control at 10 µM: 60.5%
[18]
  growth, % of control at 10 µM: 19.3%
[19]
  growth, % of control at 10 µM: 24.4%
HT-29
  growth, % of control at 10 µM: 10%
[20]
  growth, % of control at 10 µM: 31.9%
[21]
  growth, % of control at 10 µM: 53.1%
[22]
  growth, % of control at 10 µM: 27.1%
[23]
  growth, % of control at 10 µM: 19%
